Patent US8765730B2 (Hoffmann-La Roche Inc, priority 2010, dated 2014)
Values belong to the compound of their own block, whether it stands above or below them.

Biological target: T1, human GPBAR1 receptor (Homo sapiens, UniProt Q8TDU6)
T1 construct: expressed in transfected cells
T1 sequence (Q8TDU6 1-330): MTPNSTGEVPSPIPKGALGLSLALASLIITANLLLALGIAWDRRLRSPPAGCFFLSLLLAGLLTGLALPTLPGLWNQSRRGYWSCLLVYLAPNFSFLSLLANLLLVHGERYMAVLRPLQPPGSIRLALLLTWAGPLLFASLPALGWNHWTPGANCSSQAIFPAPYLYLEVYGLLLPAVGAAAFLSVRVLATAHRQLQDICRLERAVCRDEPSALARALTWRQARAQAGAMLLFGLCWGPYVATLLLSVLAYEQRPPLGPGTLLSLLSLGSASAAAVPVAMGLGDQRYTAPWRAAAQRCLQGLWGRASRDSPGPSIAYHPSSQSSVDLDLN
Test: functional cAMP assay in CHO-dhfr(minus) cells expressing human GPBAR1 receptors
Assay type: cell-based
Details: human EC50, functional cAMP assay, 30 min at 30° C.
Procedure, shortened: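 Agonist cAMP read-out: stable GPBAR1 CHO-dhfr− clone, 30 min compound exposure at 30° C following 30 min IBMX (1 mM) preincubation in Krebs Ringer bicarbonate. Time-resolved energy-transfer detection gives EC50; parental CHO cells serve as counter-screen.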

EC50: 21 nM
Compound: Cc1cc(/C(C[C@@H](c2ccc(N3CCC(CC(=O)O)CC3)cc2)c2ccc(F)cc2F)=N/O)ccn1 (single isomer, unassigned) [Example 430, (1-{4-[(+)-1-(2,4-Difluoro-phenyl)-3-[(E)-hydroxyimino]-3-(2-methyl-pyridin-4-yl)-propyl]-phenyl}-piperidin-4-yl)-acetic acid]

EC50: 15 nM
Compound: COCCc1nnc(-c2ccc([C@@H](C/C(=N\O)c3ccnc(C)c3)c3ccccc3C)cc2)o1 [Example 420, ((−), E)-3-{4-[5-(2-Methoxy-ethyl)[1,3,4]oxadiazol-2-yl]-phenyl}-1-(2-methyl-pyridin-4-yl)-3-o-tolyl-propan-1-one oxime]

EC50: 153 nM
Compound: Cn1cc(/C(CC(c2ccc(-c3ccc(CC(=O)O)cc3)cc2)c2ccc(Cl)cc2F)=N/O)ccc1=O (single isomer, unassigned) [Example 462, {4′-[(+)-1-(4-chloro-2-fluoro-phenyl)-3-[(E)-hydroxyimino]-3-(1-methyl-6-oxo-1,6-dihydro-pyridin-3-yl)-propyl]-biphenyl-4-yl}-acetic acid]

EC50: 24 nM
Compound: Cc1cc(/C(CC(c2ccc(-c3ccc(C(=O)O)c(Cl)c3)cc2)c2ccc(Cl)cc2F)=N/O)ccn1 (stereo not shown) [Example 451, 3-Chloro-4′-[1-(4-chloro-2-fluoro-phenyl)-3-[(E)-hydroxyimino]-3-(2-methyl-pyridin-4-yl)-propyl]-biphenyl-4-carboxylic acid]

Further lines, the compound ahead of its results:

Compound: Cc1cc(/C(CC(c2ccc(Br)cc2)c2ccccc2C(F)(F)F)=N/O)ccn1 (stereo not shown) [Example 132, (E)-3-(4-Bromo-phenyl)-1-(2-methyl-pyridin-4-yl)-3-(2-trifluoromethyl-phenyl)-propan-1-one oxime]
EC50: 46 nM

Compound: CCCC(C/C(=N\O)c1ccc(=O)n(C)c1)c1ccc(Br)cc1F (stereo not shown) [Example 191, 5-{3-(4-Bromo-2-fluoro-phenyl)-1-[(E)-hydroxyimino]-hexyl}-1-methyl-1H-pyridin-2-one]
EC50: 375 nM

Compound: Cn1cc(/C(CC(c2ccc(-c3ccc(C(=O)O)cc3)cc2)c2ccc(F)cc2Cl)=N/O)ccc1=O (stereo not shown) [Example 412, (E)-4′-(1-(2-chloro-4-fluorophenyl)-3-(hydroxyimino)-3-(1-methyl-6-oxo-1,6-dihydropyridin-3-yl)propyl)biphenyl-4-carboxylic acid]
EC50: 30 nM

Compound: Cc1cc(F)ccc1C(C/C(=N\O)c1ccc(=O)n(C)c1)c1ccc(-c2ccc(C(=O)O)cc2)cc1 (stereo not shown) [Example 225, (E)-4′-(1-(4-Fluoro-2-methylphenyl)-3-(hydroxyimino)-3-(1-methyl-6-oxo-1,6-dihydropyridin-3-yl)propyl)biphenyl-4-carboxylic acid]
EC50: 49 nM

Compound: COc1ccc(C2(C/C(=N\O)c3ccnc(C)c3)CCCCC2)cc1 [Example 158, (E)-2-[1-(4-Methoxy-phenyl)-cyclohexyl]-1-(2-methyl-pyridin-4-yl)-ethanone oxime]
EC50: 1030 nM

Compound: Cc1ccccc1C(C/C(=N\O)c1ccc(=O)n(C)c1)c1ccc(C(=O)NCCC(=O)O)cc1 (stereo not shown) [Example 214, 3-{4-[3-[(E)-Hydroxyimino]-3-(1-methyl-6-oxo-1,6-dihydro-pyridin-3-yl)-1-o-tolyl-propyl]-benzoylamino}-propionic acid]
EC50: 1220 nM

Compound: Cc1ccccc1C(C/C(=N\O)c1ccc(=O)n(C)c1)c1ccc(C(=O)O)cc1 (stereo not shown) [Example 360, 4-[3-[(E)-Hydroxyimino]-3-(1-methyl-6-oxo-1,6-dihydro-pyridin-3-yl)-1-o-tolyl-propyl]-benzoic acid]
EC50: 4760 nM

Compound: Cc1cc(/C(C[C@@H](c2ccccc2)c2ccc(Cl)cc2C)=N/O)ccn1 [Example 390, (S)-3-(4-Chloro-2-methyl-phenyl)-1-(2-methyl-pyridin-4-yl)-3-phenyl-propan-1-one oxime]
EC50: 53 nM

Compound: Cc1cc(Cl)ccc1C(C/C(=N\O)c1ccc(=O)n(C)c1)c1ccc(OCCO)c(F)c1 (stereo not shown) [Example 328, 5-{3-(4-Chloro-2-methyl-phenyl)-3-[3-fluoro-4-(2-hydroxy-ethoxy)-phenyl]-1-[(E)-hydroxyimino]-propyl}-1-methyl-1H-pyridin-2-one]
EC50: 11 nM
